ChEMBL document CHEMBL4507268 (2021)

Tests used:
Conditions in all cases: Compound concentration 1.0 uM
[1] = biological target: Bone morphogenetic protein receptor type-1B (Homo sapiens) (UniProt O00238)
[2] = biological target: Aurora kinase B (Homo sapiens) (UniProt Q96GD4)
[3] = biological target: Calcium/calmodulin-dependent protein kinase type II subunit gamma (Homo sapiens) (UniProt Q13555)
[4] = biological target: Cyclin-dependent kinase 1/cyclin B (Homo sapiens) (UniProt P06493+P14635+Q8WWL7+O95067)
[5] = biological target: Transient receptor potential cation channel subfamily M member 7 (Homo sapiens) (UniProt Q96QT4)
[6] = biological target: Dual specificity tyrosine-phosphorylation-regulated kinase 3 (Homo sapiens) (UniProt O43781)
[7] = biological target: Fibroblast growth factor receptor 3 (Homo sapiens) (UniProt P22607)
[8] = biological target: eIF-2-alpha kinase GCN2 (Homo sapiens) (UniProt Q9P2K8)
[9] = biological target: Tyrosine-protein kinase HCK (Homo sapiens) (UniProt P08631)
[10] = biological target: Mitogen-activated protein kinase kinase kinase 11 (Homo sapiens) (UniProt Q16584)
[11] = biological target: T1, Serine/threonine-protein kinase Nek1 (Homo sapiens) (UniProt Q96PY6)
T1 sequence (whole entry): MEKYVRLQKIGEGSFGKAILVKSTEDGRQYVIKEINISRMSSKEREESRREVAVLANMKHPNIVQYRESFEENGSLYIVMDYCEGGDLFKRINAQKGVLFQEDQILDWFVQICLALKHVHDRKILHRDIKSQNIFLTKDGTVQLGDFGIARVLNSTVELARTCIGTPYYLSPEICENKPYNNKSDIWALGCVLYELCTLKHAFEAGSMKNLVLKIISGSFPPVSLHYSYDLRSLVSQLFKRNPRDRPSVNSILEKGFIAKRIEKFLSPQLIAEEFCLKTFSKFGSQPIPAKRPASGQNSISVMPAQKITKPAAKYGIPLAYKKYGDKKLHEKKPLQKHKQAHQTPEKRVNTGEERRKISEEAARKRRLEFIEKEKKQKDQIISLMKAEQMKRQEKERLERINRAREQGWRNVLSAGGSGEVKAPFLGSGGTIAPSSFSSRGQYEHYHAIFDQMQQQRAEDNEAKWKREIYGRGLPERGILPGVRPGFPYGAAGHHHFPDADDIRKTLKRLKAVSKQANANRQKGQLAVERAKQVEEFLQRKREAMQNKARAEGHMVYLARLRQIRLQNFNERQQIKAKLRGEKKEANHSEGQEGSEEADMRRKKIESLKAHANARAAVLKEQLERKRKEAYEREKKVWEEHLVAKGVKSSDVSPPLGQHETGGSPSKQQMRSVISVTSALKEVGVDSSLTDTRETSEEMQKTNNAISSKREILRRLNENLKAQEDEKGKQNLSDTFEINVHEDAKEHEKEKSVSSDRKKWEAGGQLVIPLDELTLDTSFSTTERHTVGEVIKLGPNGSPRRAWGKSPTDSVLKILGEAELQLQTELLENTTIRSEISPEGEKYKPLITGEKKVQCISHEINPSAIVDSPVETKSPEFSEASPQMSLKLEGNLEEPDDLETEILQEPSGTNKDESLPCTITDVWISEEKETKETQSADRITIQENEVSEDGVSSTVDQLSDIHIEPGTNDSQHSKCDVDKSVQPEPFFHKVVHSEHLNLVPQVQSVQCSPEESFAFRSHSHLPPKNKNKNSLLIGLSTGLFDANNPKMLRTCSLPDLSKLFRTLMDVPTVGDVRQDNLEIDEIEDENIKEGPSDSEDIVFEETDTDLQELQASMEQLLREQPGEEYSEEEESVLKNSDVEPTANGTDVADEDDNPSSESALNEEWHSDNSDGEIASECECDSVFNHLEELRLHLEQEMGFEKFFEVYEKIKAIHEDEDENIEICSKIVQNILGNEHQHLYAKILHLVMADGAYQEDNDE

[12] = biological target: Serine/threonine-protein kinase MARK2 (Homo sapiens) (UniProt Q7KZI7)
[13] = biological target: Serine/threonine-protein kinase N2 (Homo sapiens) (UniProt Q16513)
[14] = biological target: T2, Tyrosine-protein kinase receptor TYRO3 (Homo sapiens) (UniProt Q06418)
T2 sequence (whole entry): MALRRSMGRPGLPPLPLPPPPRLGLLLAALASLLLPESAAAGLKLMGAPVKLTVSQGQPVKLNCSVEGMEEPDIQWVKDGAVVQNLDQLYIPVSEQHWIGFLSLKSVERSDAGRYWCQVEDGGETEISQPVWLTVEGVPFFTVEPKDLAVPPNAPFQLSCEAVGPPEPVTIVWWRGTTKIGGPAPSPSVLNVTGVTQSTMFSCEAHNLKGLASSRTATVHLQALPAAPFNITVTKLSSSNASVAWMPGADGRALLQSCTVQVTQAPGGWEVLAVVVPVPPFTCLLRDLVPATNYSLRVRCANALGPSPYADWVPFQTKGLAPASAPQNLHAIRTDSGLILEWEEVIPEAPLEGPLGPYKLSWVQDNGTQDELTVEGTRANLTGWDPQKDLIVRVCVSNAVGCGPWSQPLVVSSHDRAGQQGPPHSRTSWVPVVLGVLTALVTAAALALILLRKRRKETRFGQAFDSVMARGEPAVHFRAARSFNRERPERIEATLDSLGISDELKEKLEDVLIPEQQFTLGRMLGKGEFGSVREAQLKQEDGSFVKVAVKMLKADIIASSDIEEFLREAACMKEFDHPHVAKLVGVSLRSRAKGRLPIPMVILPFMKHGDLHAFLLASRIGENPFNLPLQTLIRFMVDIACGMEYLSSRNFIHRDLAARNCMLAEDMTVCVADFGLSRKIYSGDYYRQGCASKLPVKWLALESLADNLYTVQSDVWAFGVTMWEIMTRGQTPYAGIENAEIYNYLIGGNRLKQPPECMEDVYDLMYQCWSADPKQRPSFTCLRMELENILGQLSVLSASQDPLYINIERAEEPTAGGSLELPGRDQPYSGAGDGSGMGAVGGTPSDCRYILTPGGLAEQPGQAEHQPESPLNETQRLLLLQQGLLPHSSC

[15] = biological target: Serine/threonine-protein kinase VRK1 (Homo sapiens) (UniProt Q99986)
[16] = biological target: Phosphatidylinositol 5-phosphate 4-kinase type-2 alpha (Homo sapiens) (UniProt P48426)

Measured: % residual kinase activity

Sequence of Phosphatidylinositol 5-phosphate 4-kinase type-2 alpha (Homo sapiens) (P48426 whole entry): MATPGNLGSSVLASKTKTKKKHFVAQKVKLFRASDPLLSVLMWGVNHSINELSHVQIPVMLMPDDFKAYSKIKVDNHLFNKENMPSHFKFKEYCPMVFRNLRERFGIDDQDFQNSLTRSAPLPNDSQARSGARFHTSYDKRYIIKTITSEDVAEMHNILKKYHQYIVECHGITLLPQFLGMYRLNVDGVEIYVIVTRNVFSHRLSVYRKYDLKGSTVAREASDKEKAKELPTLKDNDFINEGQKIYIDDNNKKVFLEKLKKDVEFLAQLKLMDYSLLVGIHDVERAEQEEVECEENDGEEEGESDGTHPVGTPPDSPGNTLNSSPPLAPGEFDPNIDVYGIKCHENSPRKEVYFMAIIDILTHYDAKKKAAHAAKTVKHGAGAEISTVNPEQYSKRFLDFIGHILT
Sequence of Serine/threonine-protein kinase MARK2 (Homo sapiens) (Q7KZI7 whole entry): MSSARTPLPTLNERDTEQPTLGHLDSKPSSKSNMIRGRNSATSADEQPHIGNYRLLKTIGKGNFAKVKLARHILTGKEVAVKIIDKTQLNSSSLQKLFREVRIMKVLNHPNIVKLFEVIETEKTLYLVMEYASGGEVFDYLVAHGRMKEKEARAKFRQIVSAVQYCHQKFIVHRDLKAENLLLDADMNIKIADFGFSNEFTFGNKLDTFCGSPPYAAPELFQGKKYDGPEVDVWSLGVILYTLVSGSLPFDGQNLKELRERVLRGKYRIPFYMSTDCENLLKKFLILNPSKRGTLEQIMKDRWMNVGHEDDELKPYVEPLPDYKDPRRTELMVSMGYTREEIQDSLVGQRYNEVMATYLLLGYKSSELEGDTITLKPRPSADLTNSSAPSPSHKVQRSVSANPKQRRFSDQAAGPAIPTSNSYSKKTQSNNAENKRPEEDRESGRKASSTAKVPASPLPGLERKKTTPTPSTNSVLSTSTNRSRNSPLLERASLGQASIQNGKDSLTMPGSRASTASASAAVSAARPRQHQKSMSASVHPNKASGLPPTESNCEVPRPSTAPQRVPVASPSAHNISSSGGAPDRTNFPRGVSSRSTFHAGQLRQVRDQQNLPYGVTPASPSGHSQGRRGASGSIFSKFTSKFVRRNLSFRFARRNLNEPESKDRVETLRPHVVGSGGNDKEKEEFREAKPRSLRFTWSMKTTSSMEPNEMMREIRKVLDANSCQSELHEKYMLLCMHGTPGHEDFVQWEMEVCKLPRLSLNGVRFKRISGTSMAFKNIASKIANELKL
Sequence of Serine/threonine-protein kinase N2 (Homo sapiens) (Q16513 whole entry, looked up): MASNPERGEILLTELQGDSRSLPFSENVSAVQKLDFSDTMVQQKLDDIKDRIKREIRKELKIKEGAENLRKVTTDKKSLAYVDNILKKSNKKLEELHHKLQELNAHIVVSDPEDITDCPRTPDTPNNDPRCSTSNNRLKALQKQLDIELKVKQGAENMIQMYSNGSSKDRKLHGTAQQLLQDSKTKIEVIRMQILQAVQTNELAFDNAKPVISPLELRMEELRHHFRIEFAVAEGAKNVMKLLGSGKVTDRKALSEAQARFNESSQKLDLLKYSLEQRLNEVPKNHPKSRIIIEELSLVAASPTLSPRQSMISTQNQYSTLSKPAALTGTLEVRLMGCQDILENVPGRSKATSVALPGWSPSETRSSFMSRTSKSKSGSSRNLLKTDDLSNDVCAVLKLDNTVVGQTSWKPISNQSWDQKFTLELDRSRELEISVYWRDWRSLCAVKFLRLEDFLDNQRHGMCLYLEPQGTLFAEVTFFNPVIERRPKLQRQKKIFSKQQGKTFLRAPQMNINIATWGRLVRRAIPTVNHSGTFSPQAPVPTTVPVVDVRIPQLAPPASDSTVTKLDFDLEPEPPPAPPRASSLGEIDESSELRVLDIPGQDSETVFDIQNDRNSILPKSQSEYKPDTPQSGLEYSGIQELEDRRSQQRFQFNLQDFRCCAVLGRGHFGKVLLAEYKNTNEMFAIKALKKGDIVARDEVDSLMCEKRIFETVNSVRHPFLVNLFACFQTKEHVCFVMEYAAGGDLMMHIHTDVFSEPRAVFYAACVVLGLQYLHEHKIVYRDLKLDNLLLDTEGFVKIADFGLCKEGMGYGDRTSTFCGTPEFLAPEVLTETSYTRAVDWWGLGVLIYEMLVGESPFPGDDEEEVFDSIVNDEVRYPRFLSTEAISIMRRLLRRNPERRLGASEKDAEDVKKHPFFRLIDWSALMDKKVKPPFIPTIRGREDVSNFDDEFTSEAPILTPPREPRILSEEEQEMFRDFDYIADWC
Sequence of Tyrosine-protein kinase HCK (Homo sapiens) (P08631 2-526 limits assumed): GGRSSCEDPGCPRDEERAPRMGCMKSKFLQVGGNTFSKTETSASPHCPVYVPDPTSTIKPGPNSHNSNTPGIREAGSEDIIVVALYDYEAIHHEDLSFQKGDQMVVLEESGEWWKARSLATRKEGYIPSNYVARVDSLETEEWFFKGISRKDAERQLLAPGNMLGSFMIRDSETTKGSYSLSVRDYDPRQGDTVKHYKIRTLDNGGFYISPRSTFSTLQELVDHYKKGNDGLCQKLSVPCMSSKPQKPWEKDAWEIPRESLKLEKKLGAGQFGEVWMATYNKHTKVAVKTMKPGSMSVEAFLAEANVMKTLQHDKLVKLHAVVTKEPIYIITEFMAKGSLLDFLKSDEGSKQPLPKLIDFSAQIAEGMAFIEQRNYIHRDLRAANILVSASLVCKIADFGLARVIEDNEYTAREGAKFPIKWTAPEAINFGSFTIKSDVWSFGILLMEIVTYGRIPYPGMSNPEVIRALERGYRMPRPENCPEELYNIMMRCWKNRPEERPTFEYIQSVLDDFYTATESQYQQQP
Sequence of Calcium/calmodulin-dependent protein kinase type II subunit gamma (Homo sapiens) (Q13555 whole entry): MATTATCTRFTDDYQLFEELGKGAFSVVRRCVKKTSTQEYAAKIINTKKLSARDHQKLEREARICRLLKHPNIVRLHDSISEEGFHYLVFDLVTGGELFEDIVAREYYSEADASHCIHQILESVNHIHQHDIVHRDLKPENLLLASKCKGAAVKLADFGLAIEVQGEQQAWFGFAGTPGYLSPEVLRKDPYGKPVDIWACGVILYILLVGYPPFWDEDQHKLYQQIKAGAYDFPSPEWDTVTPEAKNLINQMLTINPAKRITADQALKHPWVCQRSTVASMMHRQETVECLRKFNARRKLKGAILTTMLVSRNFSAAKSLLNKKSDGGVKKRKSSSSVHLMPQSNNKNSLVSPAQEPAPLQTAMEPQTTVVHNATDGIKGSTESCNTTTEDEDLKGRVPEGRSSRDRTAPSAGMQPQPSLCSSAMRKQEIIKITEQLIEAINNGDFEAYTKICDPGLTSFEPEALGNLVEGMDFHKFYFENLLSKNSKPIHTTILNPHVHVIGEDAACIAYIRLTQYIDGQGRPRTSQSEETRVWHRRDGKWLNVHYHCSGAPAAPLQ
Sequence of Serine/threonine-protein kinase VRK1 (Homo sapiens) (Q99986 whole entry): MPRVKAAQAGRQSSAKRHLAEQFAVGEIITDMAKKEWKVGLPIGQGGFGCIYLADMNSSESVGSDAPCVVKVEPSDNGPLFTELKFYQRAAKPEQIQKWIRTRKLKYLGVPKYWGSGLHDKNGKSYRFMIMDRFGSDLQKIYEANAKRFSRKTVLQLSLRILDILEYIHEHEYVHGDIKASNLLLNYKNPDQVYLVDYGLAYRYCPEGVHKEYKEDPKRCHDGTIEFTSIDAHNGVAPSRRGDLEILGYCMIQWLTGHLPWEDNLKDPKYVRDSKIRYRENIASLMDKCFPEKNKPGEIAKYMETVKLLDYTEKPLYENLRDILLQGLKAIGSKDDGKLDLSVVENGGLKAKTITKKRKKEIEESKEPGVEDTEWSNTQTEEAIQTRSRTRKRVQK
Sequence of Aurora kinase B (Homo sapiens) (Q96GD4 whole entry): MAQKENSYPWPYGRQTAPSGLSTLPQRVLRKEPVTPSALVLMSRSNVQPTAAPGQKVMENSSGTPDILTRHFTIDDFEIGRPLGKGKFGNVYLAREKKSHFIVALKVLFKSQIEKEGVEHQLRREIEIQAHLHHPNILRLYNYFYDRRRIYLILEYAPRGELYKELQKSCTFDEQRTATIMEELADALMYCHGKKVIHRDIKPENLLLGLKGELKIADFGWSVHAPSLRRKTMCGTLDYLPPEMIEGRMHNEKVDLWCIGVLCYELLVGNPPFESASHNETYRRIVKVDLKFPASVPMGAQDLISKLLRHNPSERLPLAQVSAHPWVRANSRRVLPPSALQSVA
Sequence of Bone morphogenetic protein receptor type-1B (Homo sapiens) (O00238 whole entry): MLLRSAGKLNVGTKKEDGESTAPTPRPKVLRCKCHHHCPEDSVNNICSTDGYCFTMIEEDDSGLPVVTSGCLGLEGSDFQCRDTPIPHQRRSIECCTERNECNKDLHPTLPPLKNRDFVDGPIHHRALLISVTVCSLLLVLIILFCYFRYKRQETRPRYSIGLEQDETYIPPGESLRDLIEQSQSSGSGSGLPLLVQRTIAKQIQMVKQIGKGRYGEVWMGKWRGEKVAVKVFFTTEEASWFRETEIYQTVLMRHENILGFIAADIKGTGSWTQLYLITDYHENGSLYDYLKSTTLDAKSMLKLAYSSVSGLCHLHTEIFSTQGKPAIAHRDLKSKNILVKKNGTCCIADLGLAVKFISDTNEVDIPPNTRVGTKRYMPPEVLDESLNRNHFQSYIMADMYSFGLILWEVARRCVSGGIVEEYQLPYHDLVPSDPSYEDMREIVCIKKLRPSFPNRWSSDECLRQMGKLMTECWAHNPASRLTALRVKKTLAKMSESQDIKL

CN1CCN(c2cnc3c(C4CCN(C(=O)c5ccc(OC(F)(F)F)cc5N)CC4)ncnc3c2)CC1 [BAY-885]
inactive: [1] 102% | [2] 94% | [3] 93% | [4] 101% | [5] 122% | [6] 103% | [7] 106% | [8] 98% | [9] 95% | [10] 112% | [11] 98% | [12] 113% | [13] 104% | [14] 100% | [15] 100% | [16] 95%
